The text below walks through data of patent publication US8173680B2, “Cannabinoid receptor modulators” (7TM Pharma A/S, priority 2007, dated 2012).

A word on the IC50: it is the concentration needed to halve the response being measured.

The assay deals with T1, human CB1 receptor (Homo sapiens, UniProt P21554).
T1 construct: expressed in transfected cells; membrane preparation
T1 sequence (P21554 whole entry): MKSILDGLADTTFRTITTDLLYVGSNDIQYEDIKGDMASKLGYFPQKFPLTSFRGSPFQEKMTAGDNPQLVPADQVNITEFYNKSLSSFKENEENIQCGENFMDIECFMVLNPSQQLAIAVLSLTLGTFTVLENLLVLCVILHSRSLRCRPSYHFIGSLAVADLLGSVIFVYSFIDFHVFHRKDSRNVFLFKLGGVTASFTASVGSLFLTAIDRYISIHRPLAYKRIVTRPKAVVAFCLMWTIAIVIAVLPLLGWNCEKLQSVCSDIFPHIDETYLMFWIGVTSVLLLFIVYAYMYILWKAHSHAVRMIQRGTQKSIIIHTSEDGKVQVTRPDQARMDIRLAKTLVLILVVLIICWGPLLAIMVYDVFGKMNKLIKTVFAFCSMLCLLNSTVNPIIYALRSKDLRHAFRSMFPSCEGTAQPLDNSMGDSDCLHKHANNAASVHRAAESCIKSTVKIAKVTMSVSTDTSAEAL
Put plainly: Cannabinoid Receptor-1 functional assay: inhibition of CP55940-induced [35S]GTPγS binding to membranes from CHO-K1 cells expressing the human CB1 receptor. Type of assay: biochemical. The settings on record: antagonizing CB1 receptor agonist CP55940 (3 nM), [35S]GTPγS SPA, read-out: Antagonism IC50. The source says: Transfection and Cell Culture—The cDNA encoding the human CB1 (Cannabinoid Receptor-1) receptor (GenBank accession number NM_016083) was cloned from a human adipose tissue cDNA library and cloned into the eukaryotic expression vector pcDNA3.1 (Invitrogen).
Chinese Hamster Ovary cells (CHO-K1) stably expressing recombinant human CB1 receptors were generated by transfecting the plasmid containing the coding sequence of the human CB1 receptor in CHO-K1 cells, using lipofectamine, according to the manufacturers instructions. Resistant clones were selected in the presence of 600 μg/ml G418 (Life technology). Stably transfected CHO-K1 cells were maintained in Ham's F-12 culture medium (Invitrogen), supplemented with 10% fetal calf serum (Invitrogen), 100 U/ml penicillin, 100 μg/ml streptomycin (Life Technology), and 600 μg/ml G418.
Cannabinoid Receptor-1 Functional Assay.
Functional activities of the above examples of compounds of the invention were assessed in vitro by measuring their ability to inhibit CP55940-induced [^35S]GTPγS binding to membranes prepared from CHO-K1 cells expressing the human CB1 receptor (described in Transfection and Cell Culture). CP55940 is a well known non-selective CB1 and CB2 receptor agonist (e.g Felder et al., 1995, Molecular Pharmacology, (48) 443-50). Membranes were prepared by a standard procedure. Briefly, cells were harvested using 10 mM EDTA and collected by centrifugation. Pelleted cells were homogenized in ice-cold 20 mM Hepes (pH 7.4), 10 mM EDTA and protease inhibitors (Complete protease inhibitor cocktail tablet, Roche) using an Ultra Turrax Homogenizer. The homogenate was centrifuged at 14 000 rpm for 45 min. at 4° C. The resultant pellet was resuspended in the same buffer but with only 0.1 mM EDTA and was again centrifuged at 14 000 rpm for 45 min. at 4° C. The resulting pellet (membranes) was resuspended in 20 mM Hepes (pH 7.4), 0.1 mM EDTA, 2 mM MgCl2 and protease inhibitors and protein concentration was determined by Micro BCA Protein Assay Reagent Kit (Pierce Biotechnology) according to the manufacturers instructions. The [^35S]GTPγS SPA (Scintillation Proximity Assay) binding assay was performed by incubating 5 μg/well membranes prepared from CHO-K1 cells expressing the human CB1 receptor with 1 nM [^35S]GTPγS (Perkin Elmer—NEG 030H) in the presence of 3 nM of CP55940 and various concentrations of the test compounds at room temperature for 1 hr in 96-well microtiter plates. 0.4 mg/well SPA beads (PVT-WGA; RPNQ0001 Amersham Pharmacia Biotech) were then added and the incubation continued for further 30 min. on an orbital shaker. The assay buffer contained 50 mM HEPES (pH 7.5), 50 mM NaCl, 2.5 mM MgCl2, 0.1% BSA, 1 μM GDP and 100 μg/ml Saponin. Microtiter plates were centrifuged at 1500 rpm for 5 min. and radioactivity was read immediately using a Topcounter (PerkinElmer Life Sciences). Data were analyzed and IC50 values determined by non-linear regression analysis using the Prism software (GraphPad Software, San Diego).
(In general: GTPγS resists hydrolysis and so accumulates on activated G proteins.)
As to “1-(2-Chloro-phenyl)-5-(4-chloro-phenyl)-4-(5-oxo-4,5-dihydro-[1,3,4]oxadiazol-2-ylmethyl)-1H-pyrazole-3-carboxylic acid ((R)-1-p-tolyl-ethyl)-amide [Compound 2.02]”, the IC50 was under 500 nM.

For `C[C@@H](NC(=O)c1nn(-c2ccccc2Cl)c(-c2ccc(Cl)cc2)c1Cc1noc(=O)[nH]1)c1ccc(C(F)(F)F)cc1` [Compound 1.01, 5-(4-Chloro-phenyl)-1-(2-chloro-phenyl)-4-(5-oxo-4,5-dihydro-[1,2,4]oxadiazol-3-ylmethyl)-1H-pyrazole-3-carboxylic acid [(R)-1-(4-trifluoromethyl-phenyl)-ethyl]-amide], the IC50 is under 500 nM.

As for `O=C(c1nn(-c2ccccc2Cl)c(-c2ccc(Cl)cc2)c1Cc1n[nH]c(=O)o1)N1CCC(c2ccccc2F)CC1` [Compound 2.01, 5-{5-(4-Chloro-phenyl)-1-(2-chloro-phenyl)-3-[4-(2-fluoro-phenyl)-piperidine-1-carbonyl]-1H-pyrazol-4-ylmethyl}-3H-[1,3,4]oxadiazol-2-one], the IC50 was under 500 nM.

On to `CS(=O)(=O)NC(=O)Cc1c(C(=O)N2CCC(c3ccccc3F)CC2)nn(-c2ccccc2Cl)c1-c1ccc(Cl)cc1` [Compound 3.01, N-(2-{1-(2-Chloro-phenyl)-5-(4-chloro-phenyl)-3-[4-(2-fluoro-phenyl)-piperidine-1-carbonyl]-1H-pyrazol-4-yl}-acetyl)-methanesulfonamide], for which the IC50 was under 500 nM.

`C[C@H](c1ccc(C(F)(F)F)cc1)N(C)C(=O)c1nn(-c2ccccc2Cl)c(-c2ccc(Cl)cc2)c1CC(=O)NS(C)(=O)=O` [Compound 3.02, 1-(2-Chloro-phenyl)-5-(4-chloro-phenyl)-4-(2-methanesulfonylamino-2-oxo-ethyl)-1H-pyrazole-3-carboxylic acid methyl-[(R)-1-(4-trifluoromethyl-phenyl)-ethyl]-amide]: the IC50 is under 500 nM.

In the case of `N#CNC(=O)Cc1c(C(=O)N2CCC(c3ccccc3F)CC2)nn(-c2ccccc2Cl)c1-c1ccc(Cl)cc1` [Compound 4.01, 2-{1-(2-Chloro-phenyl)-5-(4-chloro-phenyl)-3-[4-(2-fluoro-phenyl)-piperidine-1-carbonyl]-1H-pyrazol-4-yl}-N-cyano-acetamide], the half-inhibitory concentration (IC50) was under 500 nM.

For the molecule `C[C@H](c1ccc(C(F)(F)F)cc1)N(C)C(=O)c1nn(-c2ccccc2Cl)c(-c2ccc(Cl)cc2)c1CC(=O)NC#N` [Compound 4.02, (1-(2-Chloro-phenyl)-5-(4-chloro-phenyl)-3-{methyl-[(R)-1-(4-trifluoromethyl-phenyl)-ethyl]-carbamoyl}-1H-pyrazol-4-yl)-N-cyano-acetamide], the IC50 was under 500 nM.

With `N#CNC(=O)Cc1c(C(=O)N2CCC(Oc3cc(F)cc(F)c3)CC2)nn(-c2ccccc2Cl)c1-c1ccc(Cl)cc1` [Compound 4.03, {1-(2-Chloro-phenyl)-5-(4-chloro-phenyl)-3-[4-(3,5-difluoro-phenoxy)-piperidine-1-carbonyl]-1H-pyrazol-4-yl}-N-cyano-acetamide], the IC50 is under 500 nM.

Turning to `C[C@H](c1ccc(C(F)(F)F)cc1)N(C)C(=O)c1nn(-c2ccccc2Cl)c(-c2ccc(Cl)cc2)c1C1CC(=O)NC1=O` (stereo partly drawn) [Compound 5.01, 1-(2-Chloro-phenyl)-5-(4-chloro-phenyl)-4-(2,5-dioxo-pyrrolidin-3-yl)-1H-pyrazole-3-carboxylic acid methyl-[(R)-1-(4-trifluoromethyl-phenyl)-ethyl]-amide], the IC50 is under 500 nM.

For the molecule `O=C1NC(=O)C(Cc2c(C(=O)N3CCC(c4ccccc4F)CC3)nn(-c3ccccc3Cl)c2-c2ccc(Cl)cc2)N1` (centres unmarked) [Compound 6.01, 5-{1-(2-Chloro-phenyl)-5-(4-chloro-phenyl)-3-[4-(2-fluoro-phenyl)-piperidine-1-carbonyl]-1H-pyrazol-4-ylmethyl}-imidazolidine-2,4-dione], the half-maximal inhibitory concentration (IC50) is under 500 nM.

As for `C[C@@H](NC(=O)c1nn(-c2ccccc2Cl)c(-c2ccc(Cl)cc2)c1CC1NC(=O)NC1=O)c1ccc(C(F)(F)F)cc1` (some centres unmarked) [Compound 6.02], the IC50 was under 500 nM.
